Laboratory results reported in US20150252047A1, “SUBSTITUTED INDAZOL-PYRROLOPYRIMIDINES USEFUL IN THE TREATMENT OF HYPERPROLIFERATIVE DISEASES” (BAYER PHARMA AKTIENGESELLSCHAFT, priority 2012, published 2015).

Biological target: T1, human full-length MKNK1 (Homo sapiens, UniProt Q9BUB5, T385D)
T1 construct: GST (N); purchased Carna Biosciences 02-145; host or cells: insect cells (baculovirus expression system)
Test: MKNK1 kinase high ATP assay (TR-FRET)
Type: biochemical
Conditions: high ATP (2 mM final), 15 min preincubation with enzyme, 30 min reaction at 22° C.
Experimental: MKNK1-inhibitory activity at high ATP of compounds of the present invention after their preincubation with MKNK1 was quantified employing the TR-FRET-based MKNK1 high ATP assay as described in the following paragraphs.
A recombinant fusion protein of Glutathione-S-Transferase (GST, N-terminally) and human full-length MKNK1 (amino acids 1-424 and T344D of accession number BAA 19885.1), expressed in insect cells using baculovirus expression system and purified via glutathione sepharose affinity chromatography, was purchased from Carna Biosciences (product no 02-145) and used as enzyme. As substrate for the kinase reaction the biotinylated peptide biotin-Ahx-IKKRKLTRRKSLKG (C-terminus in amide form) was used, which can be purchased e.g. from the company Biosyntan (Berlin-Buch, Germany).
For the assay 50 nL of a 100 fold concentrated solution of the test compound in DMSO was pipetted into a black low volume 384 well microtiter plate (Greiner Bio-One, Frickenhausen, Germany), 2 μL of a solution of MKNK1 in aqueous assay buffer [50 mM HEPES pH 7.5, 5 mM MgCl2, 1.0 mM dithiothreitol, 0.005% (v/v) Nonidet-P40 (Sigma)] was added and the mixture was incubated for 15 min at 22° C. to allow pre-binding of the test compounds to the enzyme before the start of the kinase reaction. Then the kinase reaction was started by the addition of 3 μL of a solution of adenosine-tri-phosphate (ATP, 3.3 mM=>final conc. in the 5 μL assay volume is 2 mM) and substrate (0.1 μM=>final conc. in the 5 μL assay volume is 0.06 μM) in assay buffer and the resulting mixture was incubated for a reaction time of 30 min at 22° C. The concentration of MKNK1 was adjusted depending of the activity of the enzyme lot and was chosen appropriate to have the assay in the linear range, typical concentrations were in the range of 0.003 μg/mL. The reaction was stopped by the addition of 5 μL of a solution of TR-FRET detection reagents (5 nM streptavidine-XL665 [Cisbio Bioassays, Codolet, France] and 1 nM anti-ribosomal protein S6 (pSer236)-antibody from Invitrogen [#44921G] and 1 nM LANCE EU-W1024 Labeled ProteinG [Perkin-Elmer, product no. AD0071]) in an aqueous EDTA-solution (100 mM EDTA, 0.1% (w/v) bovine serum albumin in 50 mM HEPES pH 7.5).
The resulting mixture was incubated for 1 h at 22° C. to allow the formation of complex between the phosphorylated biotinylated peptide and the detection reagents. Subsequently the amount of phosphorylated substrate was evaluated by measurement of the resonance energy transfer from the Eu-chelate to the streptavidine-XL. Therefore, the fluorescence emissions at 620 nm and 665 nm after excitation at 350 nm were measured in a TR-FRET reader, e.g. a Rubystar (BMG Labtechnologies, Offenburg, Germany) or a Viewlux (Perkin-Elmer). The ratio of the emissions at 665 nm and at […] was taken as the measure for the amount of phosphorylated substrate. The data were normalised (enzyme reaction without inhibitor=0% inhibition, all other assay components but no enzyme=100% inhibition).

T1 sequence (Q9BUB5 1-424 isoform Q9BUB5-2 T344D): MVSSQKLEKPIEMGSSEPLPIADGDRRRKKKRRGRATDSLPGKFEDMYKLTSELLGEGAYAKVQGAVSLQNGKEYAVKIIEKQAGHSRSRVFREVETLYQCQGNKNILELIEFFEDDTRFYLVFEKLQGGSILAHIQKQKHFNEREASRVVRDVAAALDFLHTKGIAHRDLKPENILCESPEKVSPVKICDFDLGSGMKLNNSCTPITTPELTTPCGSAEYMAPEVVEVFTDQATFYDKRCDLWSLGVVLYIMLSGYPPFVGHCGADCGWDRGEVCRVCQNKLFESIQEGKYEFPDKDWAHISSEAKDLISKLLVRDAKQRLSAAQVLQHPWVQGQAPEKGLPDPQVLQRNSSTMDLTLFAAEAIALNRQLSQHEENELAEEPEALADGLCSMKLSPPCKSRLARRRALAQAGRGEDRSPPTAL

Structure (SMILES) | IC50 [nM]
COc1cc2[nH]ncc2cc1Nc1ncnc2[nH]c(C(=O)N3CCOCC3)c(Br)c12 [Example 58, {5-Bromo-4-[(6-methoxy-1H-indazol-5-yl)amino]-7H-pyrrolo[2,3-d]pyrimidin-6-yl}(morpholin-4-yl)methanone] | 2
FC(F)(F)c1n[nH]c2ccc(Nc3ncnc4[nH]ccc34)cc12 [Example 7, N-[3-(trifluoromethyl)-1H-indazol-5-yl]-7H-pyrrolo[2,3-d]pyrimidin-4-amine] | 179
COc1cc2[nH]ncc2cc1Nc1ncnc2[nH]cc(C)c12 [Example 39, N-(6-Methoxy-1H-indazol-5-yl)-5-methyl-7H-pyrrolo[2,3-d]pyrimidin-4-amine] | 1
Cc1cc2[nH]ncc2cc1Nc1ncnc2[nH]cc(C(=O)O)c12 [Example 8, 4-[(6-Methyl-1H-indazol-5-yl)amino]-7H-pyrrolo[2,3-d]pyrimidine-5-carboxylic acid] | 72
COc1cc2[nH]ncc2cc1Nc1ncnc2[nH]c(C(=O)N3C[C@H]4C[C@@H]3CO4)c(Br)c12 [Example 65, {5-Bromo-4-[(6-methoxy-1H-indazol-5-yl)amino]-7H-pyrrolo[2,3-d]pyrimidin-6-yl}[(1R,4R)-2-oxa-5-azabicyclo[2.2.1]hept-5-yl]methanone] | 4
CCCc1[nH]c2ncnc(Nc3cc4cn[nH]c4cc3OC)c2c1CC [Example 46, 5-Ethyl-N-(6-methoxy-1H-indazol-5-yl)-6-propyl-7H-pyrrolo[2,3-d]pyrimidin-4-amine] | 2
COc1cc2[nH]ncc2cc1Nc1ncnc2[nH]c(C(=O)N3CCOC[C@H]3C)c(Br)c12 [Example 67, {5-Bromo-4-[(6-methoxy-1H-indazol-5-yl)amino]-7H-pyrrolo[2,3-d]pyrimidin-6-yl}[(3R)-3-methylmorpholin-4-yl]methanone] | 3
